According to patent publication US20240035092A1, “METHODS, KITS, AND SYSTEMS FOR PREDICTING PATIENT OUTCOMES” (SAPERE BIO, INC., priority 2020, published 2024):

What was measured:
[1] = tested on: advanced breast cancer, hormone receptor-positive, HER2-negative; test: Time to progression on CDK4/6i treatment; assay type: in vivo, human; details: Palbociclib with letrozole or fulvestrant
Text: Six patients diagnosed with advanced breast cancer who were hormone receptor-positive, HER2-negative, were enrolled into a study and received a CDK4/6 inhibitor, Palbociclib, in combination with hormone-based therapy (letrozole or fulvestrant). Venous blood samples were collected from each patient into an EDTA tube prior to CDK4/6i administration, and at approximately 3 and 6 months (see FIG. 15 for timing) after the start of drug administration. T cells were isolated from blood samples and p16 expression levels were calculated as described in Example 1. Patients were followed to determine how long they received CDK4/6i treatment before becoming resistant to CDK4/6i and their cancer began to progress again (time to progression).

[2] = tested on: patients diagnosed with early-stage breast cancer; test: Grade 2 or higher CIPN diagnosed by a clinician (CTCAE-CIPN) during taxane chemotherapy; assay type: in vivo, human; details: adjuvant or neoadjuvant chemotherapy, at any point during chemotherapy, 89 patients on paclitaxel, 70 on docetaxel
Text: One hundred fifty-nine patients diagnosed with early-stage breast cancer and scheduled to undergo adjuvant or neoadjuvant chemotherapy treatment that included a taxane regimen (paclitaxel or docetaxel) were enrolled. To be enrolled in the study, each patient must have met all of the inclusion criteria. Inclusion criteria: women ages 21 or older with histologically confirmed Stage I-III breast cancer and scheduled for adjuvant or neoadjuvant chemotherapy. Venous blood samples were collected from each patient into an EDTA tube during the patient's consultation visit with the oncologist or at their first chemotherapy session before chemotherapy was administered. Additional blood samples were collected at the end of chemotherapy treatment for 124 of the initial 159 patients. Median age of patients at consent was 58 years (24-83 range), median p16 was 9.5 (6.8-11.6 range), and median p16Age GAP was −22 years (−94-37 range). T cells were isolated from blood samples and p16 expression levels were calculated as described in Example 1.
Development of grade 2 or higher CIPN as diagnosed by a clinician (CTCAE-CIPN) at any point during chemotherapy was an endpoint of the study. […]

[3] = tested on: patients diagnosed with early-stage breast cancer; test: CIPN risk prediction score built from the p16Age GAP regression model; set-up: species or system human; details: patient with a CIPN score of 11 (scale 0-20)
Method: Regression models were built by step-wise addition of variables such as co-morbidities, chronological age, p16, or p16Age GAP and interactions between the variables were also considered. […] In contrast, when p16Age GAP was used instead of p16 (Model 2), p16Age GAP was able to replace all co-morbidities, chronological age, and p16 as variables to yield the model with the similar fit (AUC 0.76, NPV 87%). The ROC curve depicted in FIG. 4 was calculated using Model 2. The p16Age GAP-containing model was a strong predictor of the risk of developing CIPN.
The data from the regression model shown in FIG. 4 was used to build a CIPN risk prediction score according to standard methods (see, e.g., Hurria, J. Clin Oncol. (2011) and Hurria J. Clin Oncology, (2016)). All variables were assigned a weight based on their R coefficients in the regression model and the sum of all weights was added to create a final risk score for each patient. For a CIPN risk model, the range was adjusted so the total score scale was 0-20, with a single value for each patient. […] In certain embodiments, this risk differential between regimens of similar efficacy can help guide regimen selection. […]

CIPN patients = details: cited from earlier work

| patients who developed grade 2 or higher CIPN [2] [%] | risk of CIPN [3] [%] | SMILES | other results |
| --- | --- | --- | --- |
|  |  | CC(=O)c1c(C)c2cnc(Nc3ccc(N4CCNCC4)cn3)nc2n(C2CCCC2)c1=O [CDK 4/6i, Palbociclib] | time to progression (resistance to CDK 4/6i treatment) ([1]; four patients whose p16 expression did not increase above measurement precision): 35-50 months; time to progression (resistance to CDK 4/6i treatment) ([1]; two patients whose p16 expression increased above measurement precision after treatment): 10-20 months |
| 46 | 50 | CC(=O)O[C@H]1C(=O)[C@@]2(C)[C@H]([C@H](OC(=O)c3ccccc3)[C@]3(O)C[C@H](OC(=O)[C@H](O)[C@@H](NC(=O)c4ccccc4)c4ccccc4)C(C)=C1C3(C)C)[C@]1(OC(C)=O)CO[C@@H]1C[C@@H]2O [paclitaxel] |  |
| 10 | 9 | CC(=O)O[C@@]12CO[C@@H]1C[C@H](O)[C@@]1(C)C(=O)[C@H](O)C3=C(C)[C@@H](OC(=O)[C@H](O)[C@@H](NC(=O)OC(C)(C)C)c4ccccc4)C[C@@](O)([C@@H](OC(=O)c4ccccc4)[C@H]21)C3(C)C [docetaxel] |  |
|  |  | CNCC[C@H](Oc1cccc2ccccc12)c1cccs1 [Duloxetine] | decrease in pain score, on average (CIPN patients; CIPN patients, improvement derived primarily from patients who received platinum-containing agents): one; benefit on CIPN pain (CIPN patients; patients receiving taxanes): no clear benefit |
